In US20260042762A1 (Kymera Therapeutics, Inc., priority 2018, published 2026):
Where a name gives a salt, the structure may show the parent alone.

Target: T1, MerTK (Homo sapiens, UniProt Q12866)
T1 construct: endogenous in cells; host or cells: Jurkat cells
T1 sequence (Q12866 21-999): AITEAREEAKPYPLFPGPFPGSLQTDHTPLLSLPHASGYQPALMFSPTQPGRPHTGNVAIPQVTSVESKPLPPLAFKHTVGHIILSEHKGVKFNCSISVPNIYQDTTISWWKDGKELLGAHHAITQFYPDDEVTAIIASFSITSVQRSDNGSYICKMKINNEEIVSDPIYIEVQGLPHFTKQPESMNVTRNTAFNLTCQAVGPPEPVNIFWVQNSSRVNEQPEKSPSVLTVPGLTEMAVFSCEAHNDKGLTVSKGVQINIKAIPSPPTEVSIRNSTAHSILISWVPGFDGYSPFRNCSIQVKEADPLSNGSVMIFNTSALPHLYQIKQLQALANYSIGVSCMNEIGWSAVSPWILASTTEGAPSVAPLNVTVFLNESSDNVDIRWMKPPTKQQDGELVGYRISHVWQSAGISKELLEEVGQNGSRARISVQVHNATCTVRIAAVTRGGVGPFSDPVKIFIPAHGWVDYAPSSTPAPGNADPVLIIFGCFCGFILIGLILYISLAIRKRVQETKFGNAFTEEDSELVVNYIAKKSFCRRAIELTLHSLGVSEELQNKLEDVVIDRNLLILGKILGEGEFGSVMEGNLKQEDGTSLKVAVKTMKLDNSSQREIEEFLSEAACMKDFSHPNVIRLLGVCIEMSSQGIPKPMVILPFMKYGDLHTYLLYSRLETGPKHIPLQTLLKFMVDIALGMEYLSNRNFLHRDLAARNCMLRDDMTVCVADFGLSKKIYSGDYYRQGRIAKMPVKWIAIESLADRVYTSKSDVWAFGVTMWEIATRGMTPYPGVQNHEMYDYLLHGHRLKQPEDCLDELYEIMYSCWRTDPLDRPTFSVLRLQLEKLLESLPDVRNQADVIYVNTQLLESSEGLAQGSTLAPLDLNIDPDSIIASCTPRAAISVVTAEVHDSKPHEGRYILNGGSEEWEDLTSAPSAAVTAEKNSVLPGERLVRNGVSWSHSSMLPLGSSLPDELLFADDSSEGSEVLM
Assay: MerTk degradation in Jurkat cells (Western blot)
Type: cell-based
Conditions: Jurkat, 4 h, 0.001-1 μM, 4 hour-incubation at 37° C., read-out: Jurkat Max % MerTK Degradation
Method: Compounds were reconstituted in DMSO to make 10 mM stock solutions. […] Cells were seeded into 6-well plates with about 5×10^6 cells per well. 2 μL of diluted compounds were added to cells to the final concentration of 0.001-1 μM. After a 4 hour-incubation at 37° C., cells were collected into 2 mL Eppendorf tubes and centrifuged at 1,000 rpm for 5 min. The cell pellets were washed with DPBS (1×) once and resuspended in 60 μL RIPA lysis buffer with Halt Protease and Phophatase Inhibitor Cocktail. The cells were lysed on ice for 10 min, then centrifuged at 14,000 rpm for 10 min at 4° C. and the supernatants were collected for western blots.
The protein concentration of cell lysates was quantified with Pierce™ BCA Protein Assay Kit. […] BCA working reagents were prepared by mixing BCA reagent A with reagent B in 50: 1 ratio. 200 μL of the BCA working reagents were added to 25 μL of BCA standard or cell lysates in microplate, and mixed thoroughly on a plate shaker for 30 seconds. After incubation at 37° C. for 30 min, the absorbance of samples at 562 nm were measured with EnVision Plate Reader.
Protein lysates were prepared in NuPAGE™ LDS sample buffer and NuPAGE™ sample reducing agent, and incubated at 95° C. for 5 min. […] The proteins were transferred to low fluorescence PVDF membranes using the Trans-Blot Turbo Transfer System. Membranes were then blocked in Odyssey blocking buffer at RT for 1 h followed by primary incubation at 4° C. overnight. The primary antibodies were MerTK rabbit monoclonal antibody and actin mouse monoclonal antibody. Membranes were washed three times with TBST (1×), and then incubated with IR Dye 800 CW Goat anti-rabbit and IR Dye 700 CW Goat anti-mouse secondary antibodies in 1:10,000 dilution at RT for 1 h. The Western blot images were obtained using Odyssey Imaging System.

Structure (SMILES)	Dmax [%]
Cn1c(=O)n([C@H]2CCC(=O)NC2=O)c2ccc(CCCOCCOCCOCCN3CCN(Cc4ccc(-c5cn([C@H]6CC[C@H](O)CC6)c6nc(NCCC(F)(F)F)ncc56)cc4)CC3)cc21 [I-55, 3-[3-methyl-2-oxo-5-(3-[2-[2-(2-[4-[(4-[7-[trans-4-hydroxycyclohexyl]-2-[(3,3,3-trifluoropropyl)amino]-7H-pyrrolo[2,3-d]pyrimidin-5-yl]phenyl)methyl]piperazin-1-yl]ethoxy)ethoxy]ethoxy]propyl)-2,3-dihydro-1H-1,3-benzodiazol-1-yl]piperidine-2,6-dione]	> 50
Cn1c(=O)n([C@H]2CCC(=O)NC2=O)c2ccc(CCCOCCOCCN3CCN(Cc4ccc(-c5cn([C@H]6CC[C@H](O)CC6)c6nc(NCCC(F)(F)F)ncc56)cc4)CC3)cc21 [I-56, 3-(3-methyl-2-oxo-5-[3-[2-(2-[4-[(4-[7-[trans-4-hydroxycyclohexy1]-2-[(3,3,3-trifluoropropyl)amino]-7H-pyrrolo[2,3-d]pyrimidin-5-yl]phenyl)methyl]piperazin-1-yl]ethoxy)ethoxy]propyl]-2,3-dihydro-1H-1,3-benzodiazol-1-yl)piperidine-2,6-dione]	> 50
CCCCNc1ncc2c(-c3ccc(CN4CCN(CCOCCOCCOCCOCCCc5ccc6c(c5)n(C)c(=O)n6[C@H]5CCC(=O)NC5=O)CC4)cc3)cn(C3CCCCC3)c2n1 [I-57, 3-(5-[1-[4-([4-[2-(butylamino)-7-cyclohexy1-7H-pyrrolo[2,3-d]pyrimidin-5-yl]phenyl]methyl)piperazin-1-yl]-3,6,9,12-tetraoxapentadecan-15-y1]-3-methyl-2-oxo-2,3-dihydro-1H-1,3-benzodiazol-1-y1)piperidine-2,6-dione]	> 50
CCCCNc1ncc2c(-c3ccc(CN4CCN(CCOCCOCCOCCOCCCc5ccc6c(c5)n(C)c(=O)n6[C@H]5CCC(=O)NC5=O)CC4)cc3F)cn([C@H]3CC[C@H](O)CC3)c2n1 [I-58, 3-(5-[1-[4-([4-[2-(butylamino)-7-[trans-4-hydroxycyclohexy1]-7H-pyrrolo[2,3-d]pyrimidin-5-y1]-3-fluorophenyl]methyl)piperazin-1-y1]-3,6,9,12-tetraoxapentadecan-15-y1]-3-methyl-2-oxo-2,3-dihydro-1H-1,3-benzodiazol-1-yl)piperidine-2,6-dione]	> 50
CCCCNc1ncc2c(-c3ccc(C(C)N4CCN(CCOCCOCCOCCOCCCc5ccc6c(c5)n(C)c(=O)n6C5CCC(=O)NC5=O)CC4)cc3)cn([C@H]3CC[C@H](O)CC3)c2n1 (stereo partly drawn) [I-59, 3-(5-[1-[4-(1-[4-[2-(butylamino)-7-[trans-4-hydroxycyclohexy1]-7H-pyrrolo[2,3-d]pyrimidin-5-yl]phenyl]ethyl)piperazin-1-yl]-3,6,9,12-tetraoxapentadecan-15-y1]-3-methyl-2-oxo-2,3-dihydro-1H-1,3-benzodiazol-1-yl)piperidine-2,6-dione]	> 50

Further lines, results first:

Dmax [%]	Structure (SMILES)
< 20	CCCCNc1ncc2c(-c3ccc(S(=O)(=O)N4CCN(CCOCCOCCOCCOCCCc5ccc6c(c5)n(C)c(=O)n6[C@H]5CCC(=O)N(C)C5=O)CC4)cc3)cn([C@H]3CC[C@H](O)CC3)c2n1 [I-60, 3-[5-[1-(4-[4-[2-(butylamino)-7-[trans-4-hydroxycyclohexyl]-7H-pyrrolo[2,3-d]pyrimidin-5-yl]benzenesulfonyl]piperazin-1-yl)-3,6,9,12-tetraoxapentadecan-15-y1]-3-methyl-2-oxo-2,3-dihydro-1H-1,3-benzodiazol-1-yl]-1-methylpiperidine-2,6-dione; formic acid]
> 50	CCCCNc1ncc2c(-c3ccc(CN4CCN(CCOCCOCCOCCOCCNc5ccc6c(c5)n(C)c(=O)n6[C@H]5CCC(=O)NC5=O)CC4)cc3)cn([C@H]3CC[C@H](O)CC3)c2n1 [I-61, 3-(5-[15-[4-([4-[2-(butylamino)-7-[trans-4-hydroxycyclohexyl]-7H-pyrrolo[2,3-d]pyrimidin-5-yl]phenyl]methyl)piperazin-1-y1]-4,7,10,13-tetraoxa-1-azapentadecan-1-y1]-3-methyl-2-oxo-2,3-dihydro-1H-1,3-benzodiazol-1-y1)piperidine-2,6-dione; bis(formic acid)]
> 50	CCCCNc1ncc2c(-c3ccc(CN4CCN(CCCOCCCOCCCc5ccc6c(c5)n(C)c(=O)n6[C@H]5CCC(=O)NC5=O)CC4)cc3)cn([C@H]3CC[C@H](O)CC3)c2n1 [I-62, 3-[5-[3-(3-[3-[4-([4-[2-(butylamino)-7-[trans-4-hydroxycyclohexy1]-7H-pyrrolo[2,3-d]pyrimidin-5-yl]phenyl]methyl)piperazin-1-y1]propoxy]propoxy)propy1]-3-methyl-2-oxo-2,3-dihydro-1H-1,3-benzodiazol-1-y1]piperidine-2,6-dione dihydrochloride]
> 50	Cn1c(=O)n([C@H]2CCC(=O)NC2=O)c2ccc(CCCOCCOCCOCCN3CCN(Cc4ccc(-c5nn([C@H]6CC[C@H](O)CC6)c6nc(NCCC(F)(F)F)ncc56)cc4)CC3)cc21 [I-63, 3-[3-methyl-2-oxo-5-(3-[2-[2-(2-[4-[(4-[1-[trans-4-hydroxycyclohexyl]-6-[(3,3,3-trifluoropropyl)amino]-1H-pyrazolo[3,4-d]pyrimidin-3-yl]phenyl)methyl]piperazin-1-yl]ethoxy)ethoxy]ethoxy]propyl)-2,3-dihydro-1H-1,3-benzodiazol-1-yl]piperidine-2,6-dione; formic acid]
> 50	Cn1c(=O)n([C@H]2CCC(=O)NC2=O)c2ccc(CCCOCCOCCN3CCN(Cc4ccc(-c5nn([C@H]6CC[C@H](O)CC6)c6nc(NCCC(F)(F)F)ncc56)cc4)CC3)cc21 [I-64, 3-(3-methyl-2-oxo-5-[3-[2-(2-[4-[(4-[1-[trans-4-hydroxycyclohexyl]-6-[(3,3,3-trifluoropropyl)amino]-1H-pyrazolo[3,4-d]pyrimidin-3-yl]phenyl)methyl]piperazin-1-yl]ethoxy)ethoxy]propyl]-2,3-dihydro-1H-1,3-benzodiazol-1-y1)piperidine-2,6-dione]
> 50	CCCCNc1ncc2c(-c3ccc(CN4CCC(OCCCOCCCc5ccc6c(c5)n(C)c(=O)n6[C@H]5CCC(=O)NC5=O)CC4)cc3)cn([C@H]3CC[C@H](O)CC3)c2n1 [I-66, 3-[5-[3-(3-[[1-([4-[2-(butylamino)-7-[trans-4-hydroxycyclohexyl]-7H-pyrrolo[2,3-d]pyrimidin-5-yl]phenyl]methyl)piperidin-4-yl]oxy]propoxy)propyl]-3-methyl-2-oxo-2,3-dihydro-1H-1,3-benzodiazol-1-yl]piperidine-2,6-dione]
> 50	CCCCNc1ncc2c(-c3ccc(CNCCCC(=O)N(C)CCOCCCc4ccc5c(c4)n(C)c(=O)n5[C@H]4CCC(=O)NC4=O)cc3)cn([C@H]3CC[C@H](O)CC3)c2n1 [I-67, 4-[([4-[2-(butylamino)-7-[trans-4-hydroxycyclohexy1]-7H-pyrrolo[2,3-d]pyrimidin-5-yl]phenyl]methyl)amino]-N-(2-[3-[1-(2,6-dioxopiperidin-3-y1)-3-methyl-2-oxo-2,3-dihydro-1H-1,3-benzodiazol-5-yl]propoxy]ethyl)-N-methylbutanamide; formic acid]
